Here are results for eight molecules from US5100890A, “Arylmethylazoles and their salts, agents which contain these compounds, and their use” (priority 1985, dated 1992).

Where two headings read alike, the source gives them in different places. Bounds are passed on as bounds.

The test system of data set [1] is tetrabenazine ptosis. As to the kind of experiment: Effect on tetrabenazine ptosis (TBZ), mouse (Method 1). The following applies: po, 0.5 h. It is filed as in vivo, mouse (NMRI). The protocol:
(§1) The appropriate amount of a homogenate of the particular substance in aqueous carboxymethylcellulose is fed to 6 male animals by means of a gavage one hour before treatment with tetrabenazine (40 mg/kg), intraperitoneally).
(§2) 1. Test of the effect on tetrabenazine ptosis (TBZ)
(§3) Test on mice (NMRI), male, weight 19-21 g, or on rats (Wistar), male, about 120 g body weight. Preparation administered orally, homogenized in 1% strength tylose, 1 hour before tetrabenzine, 40 mg/kg, administered subcutaneously (N=6/dose). During the test, 6 animals are present together in one container. To test for upper lid ptosis, the animals are placed individually on the table top. The extent of the ptosis (0-4 points) is assessed and is expressed as a percentage of the maximum score achievable. Evaluation is carried out 30 minutes after administration of tetrabenazine.

For data set [2], the system named is tetrabenazine ptosis. As to the kind of experiment: Effect on tetrabenazine ptosis (TBZ), rat (Method 1). The format is in vivo, rat (Wistar). The settings on record: po, 0.5 h. The protocol:
as §1, §2, §3

Data set [3] deals with yohimbine toxicity. As to the kind of experiment: Potentiation of the yohimbine toxicity in mice (Method 2). The settings on record: 1 hour before yohimbine hydrochloride 20 mg/kg s.c.; for LD50, potentiation of yohimbine toxicity (Method 2, mouse): oral, deaths after 18 hours. The format is in vivo, mouse (NMRI). The protocol:
The compounds I and their acid addition salts potentiate the toxicity of yohimbine in mice. Antidepressants of type I administered orally in a dose of 0.5 to 100 mg/kg increased the death rate for an otherwise non-fatal dose of yohimbine hydrochloride (20 mg/kg, administered subcutaneously).
2. Potentiation of the yohimbine toxicity in mice
The toxicity of yohimbine, a blocker of presynaptic alpha-receptors, is potentiated by antidepressants (literature: R. M. Quinton, Brit. J. Pharmac. 21, 55-56 (1963). Male mice, NMRI strain, 20-22 g, were arranged in test groups of n=10. The test preparation was suspended in 1% strength aqueous Tylose® slime and administered orally in a volume of 10 ml/kg. Control received only the vehicle.
After a pretreatment time of 1 hour, all animals received a dose of yohimbine hydrochloride, which dose, when administered alone, is non-toxic (20 mg/kg, administered subcutaneously). The dead animals were determined 18 hours after this treatment. (Calculation of the LD50 by probit analysis).

For data set [4], the system named is stereotypes. Description: Test of the promotion of stereotypes in rats (Method 3). It is filed as in vivo, rat (Wistar). The settings on record: for ED50: read-out: ED50, dose at which half the maximum possible number of points is reached (Method 3, rat). The protocol:
3. Test of the promotion of stereotypes in rats
The tests were carried out on 130-140 g male Wistar rats. The stereotypes were assessed at 15 minute intervals during the first two hours after administration of the substance, and then at half-hourly intervals up to the 6th hour. The scale below was used. […]
The number of points were calculated as a total number per 6 hours, divided by the number of observations.
The ED50 dose is the dose at which half the maximum possible number of points (5 points multiplied by the number of observations) is reached.

Where [5] appears, read: Mus musculus, read-out: ED50, 50% reduction in the degree of ptosis (Method 1, mouse).
Where [6] appears, read: Rattus norvegicus, read-out: ED50, 50% reduction in the degree of ptosis (Method 1, rat).
[7] abbreviates: read-out: ED50, 50% reduction in the degree of ptosis (Method 1), mouse, p.o., 1 hour before tetrabenazine 40 mg/kg.

What is called ED50 is the dose at which the effect has come halfway, by size or by number of responders.

Regarding `OC1(C(c2cccc(Cl)c2)n2ccnc2)C2CC3CC(C2)CC1C3` (racemic) [Example 25, (3-chlorophenyl)-(2-hydroxy-2-adamantyl)-(1-imidazolyl)-methane], the ED50 in data set [1] (setting [5]) is 0.79 mg/kg; in data set [2] (setting [6]), 10 mg/kg. In addition, in data set [3], the “LD50, potentiation of yohimbine toxicity (Method 2, mouse)” value (“LD50, potentiation of yohimbine toxicity” for short) worked out at 4.4 mg/kg. Further, the “stereotypes (Method 3, rat), in words” value in data set [4] (rat, up to 300 mg/kg p.o.) is “no stereotypes”.
For the molecule `O=C(O)C(O)C(O)C(=O)O.OC1(C(c2cccc(Cl)c2)n2ccnc2)C2CC3CC(C2)CC1C3` (single isomer, unassigned; (+)) [Example 168a, (+)-(3-chlorophenyl)-(2-hydroxy-2-adamantyl)-(1-imidazolyl)-methane hydrogen tartrate], the ED50 in data set [1] (setting [5]) amounted to 2.5 mg/kg; in data set [2] (setting [6]), 5.5 mg/kg; in data set [4] (Rattus norvegicus, po, 6 h) it was 30 mg/kg. For the same molecule, in data set [3], the “LD50, potentiation of yohimbine toxicity” value was determined as 4.6 mg/kg.
With `CC(C)(C)C(O)C(c1ccc(-c2ccccc2)cc1)n1ccnc1` (centres unmarked) [Example 4, 1-(4-Biphenyl)-3,3-dimethyl-1-(1-imidazolyl)-butan-2-ol], in data set [3], the “LD50, potentiation of yohimbine toxicity” value is reported as 5.3 mg/kg. The ED50 in data set [4] (po, rat, p.o., 6 hours) is more than 30 mg/kg.
Taken in the same sequence, the figures for `OC(C(c1cccc(Cl)c1)n1ccnc1)C12CC3CC(CC(C3)C1)C2` (centres unmarked) [Example 105, 1-(1-Adamantyl)-2-(3-chlorophenyl)-2-(1-imidazolyl)-ethanol] were 8.5 mg/kg and more than 30 mg/kg.
In the case of `Cc1cccc(C(n2ccnc2)C2(O)C3CC4CC(C3)CC2C4)c1` (centres unmarked) [Example 106, (2-Hydroxy-2-adamantyl)-1-imidazolyl-(3-tolyl)-methane], the ED50 in data set [1] (setting [7]) was 1.5 mg/kg; in data set [4] (po, rat, p.o., 6 hours) it was more than 30 mg/kg. The “LD50, potentiation of yohimbine toxicity” value in data set [3] was determined as 7 mg/kg.
With `COc1ccc(C(n2ccnc2)C2(O)C3CC4CC(C3)CC2C4)cc1OC` (centres unmarked) [Example 120], in data set [1] (setting [5]), the ED50 is 3 mg/kg. Moreover, in data set [3] (p.o., given as ED50, 1080 min), the “ED50 (Method 2, mouse)” value was determined as 3 mg/kg.
As to `OC1(C(c2ccc3ccccc3c2)n2ccnc2)C2CC3CC(C2)CC1C3` (centres unmarked) [Example 126], the ED50 in data set [1] (setting [5]) was determined as 3 mg/kg. In data set [3], the “LD50, potentiation of yohimbine toxicity” value stood at 3.2 mg/kg.
In the case of `CN1Cc2c(N)cccc2C(c2ccccc2)C1` (centres unmarked) [Nomifensin, reference compound], the ED50 stood at 0.72 mg/kg in data set [1] (setting [7]); 2.7 mg/kg in data set [2] (read-out: ED50, 50% reduction in the degree of ptosis (Method 1), rat, p.o., 1 hour before tetrabenazine 40 mg/kg); 11.9 mg/kg in data set [4] (Rattus norvegicus, 6 h). Also, the “LD50, potentiation of yohimbine toxicity” value in data set [3] turned out to be 8.6 mg/kg.
